One compound from patent US7888357B2, “Anti-inflammatory and protein kinase inhibitor compositions and related methods for downregulation of detrimental cellular responses and inhibition of cell death” (Northwestern University, priority 2001, dated 2011) can be followed below.

Usually IC50 stands for the concentration that gives 50% inhibition.

The target of one assay is T1, CaMKII (Rattus norvegicus, UniProt P11275).
T1 construct: purchased New England Biolabs
As to the kind of experiment: Reconstituted enzyme assay, CaMKII. The class given is biochemical. Particulars: γ-[32P]-ATP, synthetic peptide substrate; mean ± SEM; read-out: IC50 CaMKII. As for the experimental part:
[table] […] The rationale for using BV-2 cells in high throughput screening was the paucity of well-characterized human microglial cell lines, and the relevant activation responses and signaling pathways reflect those seen in human and rodent primary microglial cultures. Compounds were tested for their effects on NO accumulation in conditioned media of LPS-stimulated BV-2 cells by measurement of nitrite production by the Griess assay as a read-out for iNOS activity, as described previously. Stock solutions of compounds were prepared in dimethylsulfoxide (DMSO) or in water. When stock solutions were prepared in DMSO, control wells contained the same final concentration of DMSO as the compound-containing wells. […] Solutions of compounds for cell treatments were diluted to a 10× final concentration by dilution of stock solutions in αMEM media. […] Reconstituted enzyme assays were done as described s. The sources of protein kinases were: bovine heart PKA from Promega, rat brain PKC from Calbiochem, rat CaMKII from New England Biolabs, chicken gizzard MLCK prepared as described, and a p38 MAP kinase kit containing recombinant Xenopus p38-MAPK and its human substrate from Upstate Biotechnology. The catalytic domains of these protein kinases retain a high level of amino acid sequence identity across mammalian species, consistent with the lack of documented major differences across species for the in vitro catalytic activity of a given kinase.

In a further assay the test system is BV-2 microglial cells. Put plainly: Cell-based screen for inhibition of LPS-stimulated NO release (Griess assay). Also noted: species or system murine. The following applies: LPS-stimulated BV-2 cells, 24 hr, nitrite in conditioned media. As for the experimental part: FIG. 1. Cell-based screen for inhibition of LPS-stimulated NO release. […] Inhibition is expressed as percent control, where the control is the NO accumulation from cells stimulated with LPS alone.
The rationale for using BV-2 cells in high throughput screening was the paucity of well-characterized human microglial cell lines, and the relevant activation responses and signaling pathways reflect those seen in human and rodent primary microglial cultures. Compounds were tested for their effects on NO accumulation in conditioned media of LPS-stimulated BV-2 cells by measurement of nitrite production by the Griess assay as a read-out for iNOS activity, as described previously. Stock solutions of compounds were prepared in dimethylsulfoxide (DMSO) or in water. When stock solutions were prepared in DMSO, control wells contained the same final concentration of DMSO as the compound-containing wells. […] Solutions of compounds for cell treatments were diluted to a 10× final concentration by dilution of stock solutions in αMEM media. The commercially available drugs tested were: compound 5 (KN93 from Alexis); compound 6 (pyrrolidinedithiocarbamate or PDTC from Sigma), compound 7 (SB203580 from Alexis Corporation), compound 8 (PD98059 from Alexis Corporation), and compound 9 (UO126 from Cell Signaling). […] Respectively, Western blots of cell lysates were done with the following antibodies: monoclonal anti-iNOS (1:1000 dilution, Transduction Labs); polyclonal anti-rat IL-1β (1:1000 dilution, R&D Systems, Inc.); monoclonal anti-glial fibrillary acidic protein (GFAP) (1:[…] dilution, Sigma); polyclonal anti-rat alioE (1:15,000 dilution) prepared as described; polyclonal anti-COX-2 (1:500 dilution) and monoclonal anti-phosphoATF2 (1:1000 dilution) from Santa Cruz Biotechnology, polyclonal anti-phosphoCREB (1:1000 dilution), and polyclonal anti-phosphop38 MAPK (1:1000 dilution). Reconstituted enzyme assays were done as described s. The sources of protein kinases were: bovine heart PKA from Promega, rat brain PKC from Calbiochem, rat CaMKII from New England Biolabs, chicken gizzard MLCK prepared as described, and a p38 MAP kinase kit containing recombinant Xenopus p38-MAPK and its human substrate from Upstate Biotechnology. The catalytic domains of these protein kinases retain a high level of amino acid sequence identity across mammalian species, consistent with the lack of documented major differences across species for the in vitro catalytic activity of a given kinase.
FIG. 4. Cell-based screen for functional effects of synthetic compounds on LPS-stimulated NO release from BV-2 cells. BV-2 cells were incubated for 24 hr with LPS (500 ng/ml) in the presence of increasing concentrations of: A) MW01-070C; B) MW01-026Z; C) MW01-118Z; D) MW01-119Z; E) MW01-051Z; F) MW01-160Z; G) MW01-196A; H) MW01-024Z; I) SB203580; J) PDTC; K) U0126; L) PD98059. The nitrite levels in conditioned media were determined. Inhibition is expressed as percentage of control values, where the control is the nitrite level in cells stimulated with LPS alone.
Compounds were tested for their effects on NO production by LPS-stimulated BV-2 cells as previously described [Mirzoeva, S., Koppal, T., Petrova, T. V., Lukas, T. J., Watterson, D. M., and Van Eldik, L. J. (1999) Brain Res. 844, 126-134]. The levels of nitrite, a stable NO metabolite, in conditioned media were determined by the Griess assay as previously described [Hu, J., Castets, F., Guevara, J. L., and Van Eldik, L. J. (1996) J. Biol. Chem. 271, 2543-2547]. Stock solutions of compounds were prepared in DMSO or in water. When stock solutions were prepared in DMSO, control wells contained the same final concentration of DMSO as the compound-containing wells. Solutions of compounds for cell treatments were diluted to a 10× final concentration by dilution of stock solutions of drugs in αMEM media.
(Griess reagent forms a coloured azo dye with nitrite.)

Assay [1] addresses death associated protein kinase (DAPK) (Homo sapiens, UniProt P53355). Put plainly: Enzyme assay, DAPK. Type of assay: biochemical. Particulars: read-out: DAPK IC50. As for the experimental part:
Therefore, compound MW01-026Z was selected as a starting point for variations on component A (Table 6). […] However, none of the A variations appeared to improve the activity and selectivity profile of CompoundMW01-026Z. (For purposes of illustration, only, component G was maintained throughout as an acyl moiety, while component R2 was varied as shown. All such compositions are available using the synthetic techniques described herein. Enzyme assays were conducted per procedures described elsewhere herein.) A more comprehensive structure activity relationship is summarized in Table 7, below.
With reference to the compositions of Table 3 and the enzyme assay techniques described elsewhere herein, Table 7 provides structural activity relationships observed, in accordance with this invention.

T1 sequence (P11275 1-325 limits assumed): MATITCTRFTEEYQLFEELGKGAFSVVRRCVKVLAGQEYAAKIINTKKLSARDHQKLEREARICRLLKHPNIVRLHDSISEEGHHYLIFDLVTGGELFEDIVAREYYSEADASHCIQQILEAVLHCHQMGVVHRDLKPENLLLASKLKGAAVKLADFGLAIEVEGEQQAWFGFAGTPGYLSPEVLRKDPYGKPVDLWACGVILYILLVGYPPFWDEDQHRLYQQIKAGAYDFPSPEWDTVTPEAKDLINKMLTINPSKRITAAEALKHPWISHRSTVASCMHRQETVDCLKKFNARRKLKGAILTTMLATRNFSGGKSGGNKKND
Sequence of death associated protein kinase (DAPK) (P53355 whole entry, species assumed): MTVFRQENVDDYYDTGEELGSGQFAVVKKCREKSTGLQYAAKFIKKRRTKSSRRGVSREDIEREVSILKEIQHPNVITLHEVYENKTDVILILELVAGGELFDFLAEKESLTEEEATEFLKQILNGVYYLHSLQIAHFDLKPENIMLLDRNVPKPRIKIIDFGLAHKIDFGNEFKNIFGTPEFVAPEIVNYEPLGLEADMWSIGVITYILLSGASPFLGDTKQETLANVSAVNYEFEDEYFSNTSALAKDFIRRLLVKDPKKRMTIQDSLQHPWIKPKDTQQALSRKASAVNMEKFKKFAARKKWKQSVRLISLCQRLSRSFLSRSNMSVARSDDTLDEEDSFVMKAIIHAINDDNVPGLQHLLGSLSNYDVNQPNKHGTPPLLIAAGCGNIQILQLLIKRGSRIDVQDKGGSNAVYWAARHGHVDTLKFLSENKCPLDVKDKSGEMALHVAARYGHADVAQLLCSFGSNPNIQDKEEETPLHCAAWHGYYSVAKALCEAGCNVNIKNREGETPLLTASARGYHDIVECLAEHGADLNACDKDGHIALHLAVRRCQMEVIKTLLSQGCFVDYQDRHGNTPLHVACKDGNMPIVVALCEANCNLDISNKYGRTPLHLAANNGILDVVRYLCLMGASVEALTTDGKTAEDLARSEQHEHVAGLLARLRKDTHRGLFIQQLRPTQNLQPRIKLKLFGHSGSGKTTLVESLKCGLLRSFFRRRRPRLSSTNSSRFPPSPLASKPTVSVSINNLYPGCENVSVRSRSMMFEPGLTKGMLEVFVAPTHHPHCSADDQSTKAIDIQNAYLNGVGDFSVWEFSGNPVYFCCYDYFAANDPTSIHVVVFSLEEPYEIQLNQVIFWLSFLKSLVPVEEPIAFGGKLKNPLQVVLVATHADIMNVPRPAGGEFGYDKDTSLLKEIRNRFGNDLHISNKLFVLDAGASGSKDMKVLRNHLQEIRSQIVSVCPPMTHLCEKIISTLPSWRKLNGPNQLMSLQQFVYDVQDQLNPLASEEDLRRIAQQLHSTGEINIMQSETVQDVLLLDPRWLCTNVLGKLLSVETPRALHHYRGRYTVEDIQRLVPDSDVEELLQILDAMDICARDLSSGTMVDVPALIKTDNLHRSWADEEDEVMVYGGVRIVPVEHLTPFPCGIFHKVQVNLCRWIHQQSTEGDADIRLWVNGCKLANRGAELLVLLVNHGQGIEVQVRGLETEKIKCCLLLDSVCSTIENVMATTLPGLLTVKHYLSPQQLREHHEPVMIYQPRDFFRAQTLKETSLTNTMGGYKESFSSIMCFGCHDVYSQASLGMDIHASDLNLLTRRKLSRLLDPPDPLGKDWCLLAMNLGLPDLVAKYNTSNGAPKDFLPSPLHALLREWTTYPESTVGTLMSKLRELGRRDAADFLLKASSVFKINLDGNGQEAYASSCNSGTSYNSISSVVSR

`N=c1cc2c(nn1CCCCCCCCCCC(=O)N1CCN(c3ncccn3)CC1)-c1ccccc1CC2` [MW01-070C]: the IC50 is 9.7 ± 1.9 µM at CaMKII and 80 to 100 µM in assay [1]. The “inhibition of NO accumulation by activated glia” value is “more effective” with BV-2 microglial cells and “most active compound” with BV-2 microglial cells (listed as 1).
